Reference: ChEMBL document CHEMBL5346903, “Discovery of novel and bioavailable histone deacetylases and cyclin-dependent kinases dual inhibitor to impair the stemness of leukemia cells” (Eur J Med Chem, 2023)

What was measured:
[1] = biological target: Histone deacetylase 2 (Homo sapiens, UniProt Q92769); test: Inhibition of recombinant human HDAC2 using HDAC substrate incubated for 30 mins by fluorescence based assay
[2] = biological target: CDK3/Cyclin E (Homo sapiens) (UniProt P24864+Q00526); test: Inhibition of CDK3/cyclinE1 (unknown origin) at 100 nM preincubated for 20 mins followed by [gamma-33P]ATP addition measured after 120 mins in presence of ATP by Hot-SpotSM kinase assay relative to control; format: protein-complex assay; conditions: time 140.0 min
CDK3/Cyclin E (Homo sapiens), sequence (P24864 whole entry, looked up): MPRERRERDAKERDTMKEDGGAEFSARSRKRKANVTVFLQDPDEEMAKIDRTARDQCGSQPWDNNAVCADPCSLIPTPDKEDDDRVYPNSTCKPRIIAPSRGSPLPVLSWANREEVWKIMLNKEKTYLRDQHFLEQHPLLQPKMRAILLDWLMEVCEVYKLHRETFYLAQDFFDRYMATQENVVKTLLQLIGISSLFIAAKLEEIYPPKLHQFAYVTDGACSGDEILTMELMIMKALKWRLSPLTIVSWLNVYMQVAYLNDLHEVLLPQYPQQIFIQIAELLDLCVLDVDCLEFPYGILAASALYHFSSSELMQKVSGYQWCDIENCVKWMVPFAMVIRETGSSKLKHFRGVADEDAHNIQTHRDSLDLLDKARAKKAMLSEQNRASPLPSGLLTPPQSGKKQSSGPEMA
CDK3/Cyclin E (Homo sapiens), sequence (Q00526 whole entry, looked up): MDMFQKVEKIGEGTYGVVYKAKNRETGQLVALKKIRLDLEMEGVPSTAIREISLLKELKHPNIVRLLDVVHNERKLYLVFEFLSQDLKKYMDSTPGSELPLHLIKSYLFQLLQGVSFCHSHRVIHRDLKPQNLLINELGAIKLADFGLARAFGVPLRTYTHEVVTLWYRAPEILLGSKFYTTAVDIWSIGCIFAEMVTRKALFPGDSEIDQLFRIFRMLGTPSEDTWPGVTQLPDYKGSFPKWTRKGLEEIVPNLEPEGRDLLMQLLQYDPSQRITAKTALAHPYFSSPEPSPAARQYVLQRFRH

[3] = tested on: U-937; test: Induction of apoptosis in human U-937 cells assessed as late apoptotic cells at 0.2 uM incubated for 48 hrs by annexin V-FITC/PI satining based flow cytometry (reference value: 7.10 %); format: functional
[4] = tested on: U-937; test: Induction of apoptosis in human U-937 cells assessed as necrotic cells at 0.5 uM incubated for 48 hrs by annexin V-FITC/PI satining based flow cytometry (reference value: 1.96 %); format: functional
[5] = tested on: U-937; test: Induction of differentiation in human U-937 cells assessed as increase in CD11b positive cells at 2 uM incubated for 48 hrs by FITC staining based flow cytometry (reference value: 2.72 %); format: functional
[6] = tested on: HL-60; test: Induction of apoptosis in human HL-60 cells assessed as early apoptotic cells at 2.5 uM incubated for 48 hrs by annexin V-FITC/PI satining based flow cytometry (reference value: 2.4 %); format: functional
[7] = tested on: HL-60; test: Induction of apoptosis in human HL-60 cells assessed as necrotic cells at 2.5 uM incubated for 48 hrs by annexin V-FITC/PI satining based flow cytometry (reference value: 0.04 %); format: functional

Histone deacetylase 2, sequence (Q92769 whole entry): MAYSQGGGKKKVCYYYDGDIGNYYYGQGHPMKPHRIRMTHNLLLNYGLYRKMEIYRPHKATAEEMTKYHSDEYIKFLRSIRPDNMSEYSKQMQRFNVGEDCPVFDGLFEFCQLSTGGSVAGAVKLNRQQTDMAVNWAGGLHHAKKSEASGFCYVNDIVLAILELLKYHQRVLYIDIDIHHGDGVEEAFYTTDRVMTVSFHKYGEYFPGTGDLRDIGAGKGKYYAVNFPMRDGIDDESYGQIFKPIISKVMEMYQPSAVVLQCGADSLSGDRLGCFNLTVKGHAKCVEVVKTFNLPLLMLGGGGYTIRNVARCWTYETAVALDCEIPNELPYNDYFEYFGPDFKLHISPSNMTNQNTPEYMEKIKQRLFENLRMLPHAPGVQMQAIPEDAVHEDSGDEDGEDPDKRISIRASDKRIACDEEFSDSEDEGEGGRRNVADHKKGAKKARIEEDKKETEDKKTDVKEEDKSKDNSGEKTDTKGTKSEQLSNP

| IC50 [1] | inhibition [2] | Structure (SMILES) | Activity [3] | Activity [4] | Activity [5] | Activity [6] | Activity [7] |
| --- | --- | --- | --- | --- | --- | --- | --- |
| 98.8 nM | 36.3% | Nc1ccccc1NC(=O)c1ccc(NC(=O)c2n[nH]cc2NC(=O)c2c(Cl)cccc2Cl)cc1 | 8.15% | 4.15% | 18.5% |  |  |
|  |  | Nc1cc(F)ccc1NC(=O)c1ccc(CNC(=O)/C=C/c2cccnc2)cc1 [TUCIDINOSTAT] |  |  |  | 5.95% | 0.05% |
